In patent US5660992A, “Sialic acid/fucose based assay reagents and assay methods” (Glycomed Incorporated, priority 1995, dated 1997):

What was measured:
[1] = tested on: neutrophil migration to the peritoneal cavity; assay: Murine thioglycollate induced peritonitis model; format: in vivo, mice; details: FIG. 7; for inhibition of neutrophil migration into the peritoneum: female Swiss Webster mice, compound in tail vein, thioglycollate i.p., cells counted after three hours
Protocol: Mice were injected with saline alone (sal/-), thioglycollate and phosphate buffered saline (TG/PBS) or thioglycollate and GM 1221 or GM 1398 (TG/GM 1221 or TG/1398), and the number of neutrophils in the peritoneal cavity measured.
The efficaciousness of GM 1221, and GM 1398 was shown using a murine thioglycollate induced peritonitis model. The assay. materials and methods are known in the art, or are generally described by Lewinsohn, D. et al., J. Immun., 138:4313-4321 (1987), or Watson, S. et.al., Nature 349:164-166 (1991).
This assay measures the ability of the compounds to inhibit neutrophil migation to the peritoneal cavity, the migration being initiated by the presence of thioglycollate in the peritoneal cavity. Thioglycollate is a known and effective inflammatory agent that causes neutrophil migration into the mouse peritoneum when it is administered intraperitoneally. Lewinsohn, D. et al., J. Immun. (1987) 138:4313-4321.
Briefly, female Swiss Webster mice weighing about 25 grams were injected in the tail vein with 200 ul of phosphate buffered saline (PBS) with or without the appropriate compound. The pH of the solutions was adjusted to neutrality by the addition of either NaOH or HCL and sterilized by filtration through a 0.2 u filter.
Immediately following injection with the appropriate compound or PBS, the mice were injected intraperitoneally with 1 ml of thioglycollate medium prepared as described by the manufacturer, BBL. Three hours following injection of the thioglycollate solution the mice were sacrificed by CO2 asphyxiation, and the number of cells in the peritoneum removed by lavage with 5 ml of heparinized (5 U/ml) 0.9% sodium chloride solution containing 0.1% bovine serum albumin. Cell number was determined using a Coulter Counter. The cells were prepared for counting by diluting the lavage fluid with 1:50 of a commercial physiological isotonic solution, Isoton II, and the cells-lysed by adding S/P Lysing and Hemoglobin Reagent (1:100 final dilution). Cell nuclei were counted in a sized window with lower and upper limits set at 3.9 and 5.7 um, respectively.

[2] = target: T1, L-selectin IgG chimera (Homo sapiens, UniProt P14151); assay: ELISA: blocking of L-selectin IgG chimera binding to 2,3sLex glycolipid; details: FIG. 5 and FIG. 6; several concentrations
T1 sequence (P14151 39-332 limits assumed): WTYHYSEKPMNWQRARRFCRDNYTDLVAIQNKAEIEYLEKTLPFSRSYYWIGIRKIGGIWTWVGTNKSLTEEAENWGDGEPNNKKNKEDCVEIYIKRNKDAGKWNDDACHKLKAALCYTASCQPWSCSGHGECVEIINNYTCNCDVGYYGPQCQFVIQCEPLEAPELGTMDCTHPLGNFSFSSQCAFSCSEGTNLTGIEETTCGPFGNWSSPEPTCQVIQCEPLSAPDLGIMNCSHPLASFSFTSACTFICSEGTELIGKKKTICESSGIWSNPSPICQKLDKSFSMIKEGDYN
Excerpt: FIG. 5 is a graph showing the results of Elisa assays carried out to determine the ability of three different compounds to block the binding of 2,3,sialyl-Le^x to L-selectin IgG chimera. The compounds tested were GM 1222, GM 1279 and GM 1398. The results are expressed as per cent of control binding.
FIG. 6 is a graph showing the results of Elisa assays carried out to determine the ability of GM 1221 to block the binding of 2,3,sialyl-Le^x to L-selectin IgG chimera. The results are expressed as per cent of control binding.
An ELISA assay was employed that uses recombinant fusion proteins composed of extracellular portions of the human selectins joined to human immunoglobulin heavy chain CH3, CH2, and hinge regions. See, for example, Walz et al., Science (1990) 250:1132; Aruffo et al., Cell (1991) 67:35; Aruffo et al., Proc. Natl. Acad. Sci. USA (1992) 89:2292. […]
The positive control is the signal produced by the soluble receptor when it is allowed to react with 2,3sLex glycolipid in the microtiter wells in the absence of any inhibitor. […] The signal produced by the receptor that had been previously treated with an inhibitor (recorded as O.D.), was divided by the signal produced by the positive control and multiplied by 100 to calculate the % receptor bound to the well, or as expressed in the figures, the per cent of control binding. […]

Structure (SMILES)	inhibition of neutrophil migration into the peritoneum [1]	additional inhibition of neutrophil migration relative to GM 1221 ([1]; same mouse peritonitis model, comparison with GM 1221)	inhibition of L-selectin binding to 2,3sLex glycolipid (per cent of control binding) [2]
CC(=O)N[C@H]1[C@H]([C@H](O)[C@H](O)CO)O[C@@](OCCCCCCO[C@@H]2O[C@@H](C)[C@@H](O)[C@@H](O)[C@@H]2O)(C(=O)O)C[C@@H]1O [GM 1398, 1-O-α-Neu5Ac-(6-O-α-L-Fucopyranosyl)-Hexane]	inhibit neutrophil migration into the peritoneum	about 30%	
CC(OCCCCCCOC1O[C@@H](C)[C@@H](O)[C@@H](O)[C@@H]1O)C(=O)O (stereo partly shown) [GM 1221]	inhibit neutrophil migration into the peritoneum		inhibits L-selectin binding
